# Experimental data: the supplement of paper PMC10307832
# Key:
# Assay in all cases: relative viability (nuclei count vs DMSO), 5 days (fraction); higher = more cells survive
# [1] = test system: NCI-H520
# How it was run: (§1)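 Dosing by pin tool came one day after lung cancer cell lines were seeded in 1536-well plates, using either one drug or a fixed anchor-drug dose plus five library-drug doses (not always all listed) in √10 steps. After 5 days, nuclei were counted on 4× images. Relative viability is treated-well nuclei count divided by vehicle-well nuclei count, and values are medians of duplicate plates.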
# [2] = test system: ChaGo-K-1
# How it was run: as §1
# [3] = test system: NCI-H1755
# How it was run: as §1
# [4] = test system: NCI-H1944
# How it was run: as §1
# [5] = test system: NCI-H650
# How it was run: as §1
# [6] = test system: NCI-H2085
# How it was run: as §1
# [7] = test system: EKVX
# How it was run: as §1
# [8] = test system: H3255
# How it was run: as §1
# [9] = test system: NCI-H2347
# How it was run: as §1
# [10] = test system: NCI-H441
# How it was run: as §1
# [11] = test system: A-427
# How it was run: as §1
# [12] = test system: NCI-H460
# How it was run: as §1
compound,measurement,setting,value
O=c1[nH]c2ccccc2n1C1CCN(CCCC(c2ccc(F)cc2)c2ccc(F)cc2)CC1 [Pimozide] + N=C(N)NC(=N)NCCc1ccccc1 [Phenformin] (partner 250 µM),relative viability,[1]; first compound 0.8 µM,0.613
same,relative viability,[1]; first compound 2.53 µM,0.623
same,relative viability,[1]; first compound 8 µM,0.678
same,relative viability,[2]; first compound 0.08 µM,0.565
same,relative viability,[2]; first compound 0.253 µM,0.529
same,relative viability,[2]; first compound 0.8 µM,0.461
same,relative viability,[2]; first compound 2.53 µM,0.458
same,relative viability,[2]; first compound 8 µM,0.399
same,relative viability,[3]; first compound 0.08 µM,0.585
same,relative viability,[3]; first compound 0.253 µM,0.587
same,relative viability,[3]; first compound 0.8 µM,0.574
same,relative viability,[3]; first compound 2.53 µM,0.64
same,relative viability,[3]; first compound 8 µM,0.538
same,relative viability,[4]; first compound 0.08 µM,0.191
same,relative viability,[4]; first compound 0.253 µM,0.197
same,relative viability,[4]; first compound 0.8 µM,0.187
same,relative viability,[4]; first compound 2.53 µM,0.184
same,relative viability,[4]; first compound 8 µM,0.198
same,relative viability,[5]; first compound 0.08 µM,0.445
same,relative viability,[5]; first compound 0.253 µM,0.452
same,relative viability,[5]; first compound 0.8 µM,0.417
same,relative viability,[5]; first compound 2.53 µM,0.467
same,relative viability,[5]; first compound 8 µM,0.457
same,relative viability,[6]; first compound 0.08 µM,0.681
same,relative viability,[6]; first compound 0.253 µM,0.732
same,relative viability,[6]; first compound 0.8 µM,0.58
same,relative viability,[6]; first compound 2.53 µM,0.705
same,relative viability,[6]; first compound 8 µM,0.637
same,relative viability,[7]; first compound 0.08 µM,0.192
same,relative viability,[7]; first compound 0.253 µM,0.235
same,relative viability,[7]; first compound 0.8 µM,0.201
same,relative viability,[7]; first compound 2.53 µM,0.235
same,relative viability,[7]; first compound 8 µM,0.226
same,relative viability,[8]; first compound 0.253 µM,0.37
same,relative viability,[8]; first compound 0.8 µM,0.387
same,relative viability,[8]; first compound 2.53 µM,0.372
same,relative viability,[8]; first compound 8 µM,0.4
same,relative viability,[9]; first compound 0.253 µM,0.474
same,relative viability,[9]; first compound 0.8 µM,0.374
same,relative viability,[9]; first compound 2.53 µM,0.451
same,relative viability,[9]; first compound 8 µM,0.269
same,relative viability,[10]; first compound 0.08 µM,0.96
same,relative viability,[10]; first compound 0.253 µM,0.758
same,relative viability,[10]; first compound 0.8 µM,0.767
same,relative viability,[10]; first compound 2.53 µM,0.783
same,relative viability,[10]; first compound 8 µM,0.825
same,relative viability,[11]; first compound 0.08 µM,0.368
same,relative viability,[11]; first compound 0.253 µM,0.361
same,relative viability,[11]; first compound 0.8 µM,0.36
same,relative viability,[11]; first compound 2.53 µM,0.238
same,relative viability,[11]; first compound 8 µM,0.26
same,relative viability,[12]; first compound 0.08 µM,0.556
same,relative viability,[12]; first compound 0.253 µM,0.507
same,relative viability,[12]; first compound 0.8 µM,0.501
same,relative viability,[12]; first compound 2.53 µM,0.516
same,relative viability,[12]; first compound 8 µM,0.492
